From US5663197A, “2-(1-hydroxyethyl)-5-hydroxynaphtho[2,3-b]furan-4,9-dione and antitumor agents comprising this compound” (priority 1992, dated 1997)
In brackets after ≈: the same amount, converted by molar mass.

Experiments:
Type in all cases: cell-based
[1] = tested on: Human lung adenocarcinoma A-549 cells; test: In vitro antitumor test (trypan blue exclusion viable cell count), A-549; details: A549, 72 h, three days exposure, read-out: LD50 (IC50), 50% growth-inhibitory dose
Procedure: (§1) An appropriate amount of NFD was dissolved in DMSO to give a 1.0 mg/ml stock solution, which was diluted as necessary before use.
(§2) The following cells in the late logarithmic phase were harvested after treatment with trypsin (containing 0.25% trypsin and 0.02% EDTA; 37° C., 3 min) and used in the test: human lung adenocarcinoma cell lines A-549, VMRC-LCD and SK-LU-1, human lung squamous cell carcinoma Calu-1 cells, human colon adenocarcinoma WiDr cells, human prostate cancer LNCaP cells, human vaginal squamous cell carcinoma A-431 cells, human cervical carcinoma HeLa cells, human cholangiocarcinoma HuCC-T1 cells, mouse skin cancer melanoma B16 (M4) cells, human pancreatic carcinoma ASPC-1 cells, human neuroblastoma IMR-132 cells, human lung small cell carcinoma SCCH-194 cells, human uninary bladder carcinoma T24 cells, human renal cell carcinoma […] cells, human gastric cancer NUGC-2 cells, human thyroid carcinoma 8305C cells, human hepatoma HUH-7 cells, human ovarian carcinoma TYK-nu cells and human chorio carcinoma BeWo cells. […] These cells were plated onto a 96-well microplate at a density of 5-10×10^3 cells/cm^2 using DMEM or RPMI-1640 medium containing 10% fetal bovine serum and cultured for 24 hours in a conventional manner, after which a pre-determined amount of NFD dissolved in DMSO was added to each well. […]

[2] = tested on: Human lung adenocarcinoma VMRC-LCD cells; test: In vitro antitumor test (trypan blue exclusion viable cell count), VMRC-LCD; details: 72 h, three days exposure, read-out: LD50 (IC50), 50% growth-inhibitory dose
Procedure: as §1, §2

[3] = tested on: Human lung squamous cell carcinoma Calu-1 cells; test: In vitro antitumor test (trypan blue exclusion viable cell count), Calu-1; details: 72 h, three days exposure, read-out: LD50 (IC50), 50% growth-inhibitory dose
Procedure: as §1, §2

[4] = tested on: Human prostate cancer LNCaP cells; test: In vitro antitumor test (trypan blue exclusion viable cell count), LNCaP
Procedure: as §1
as §2, with “cells. Suspension cultures of human breast cancer MRK-nu-1 cells, human malignant B-cell lymphoma cells and human chronic myelogenous leukemia K562 cells were used to harvest the cells to be used in the test.” for “cells.”, “well. Cultivation was continued, and the number of viable cells was counted after 24, 48 and 72 hours.” for “well.”
(§3) Growth inhibitory action and lethal activity of NFD on various types of malignant tumor cells and normal human cells listed above were evaluated by counting the number of viable cells in each well of the 96-well microplate. […]

[5] = tested on: Human renal cell carcinoma VMRC-RCW cells; test: In vitro antitumor test (trypan blue exclusion viable cell count), VMRC-RCW
Procedure: as §1
as §2, with “cells. Suspension cultures of human breast cancer MRK-nu-1 cells, human malignant B-cell lymphoma cells and human chronic myelogenous leukemia K562 cells were used to harvest the cells to be used in the test.” for “cells.”, “well. Cultivation was continued, and the number of viable cells was counted after 24, 48 and 72 hours.” for “well.”
as §3

[6] = tested on: Human gastric cancer NUGC-2 cells; test: In vitro antitumor test (trypan blue exclusion viable cell count), NUGC-2
Procedure: as §1, §2

[7] = tested on: Human thyroid carcinoma 8305C cells; test: In vitro antitumor test (trypan blue exclusion viable cell count), 8305C
Procedure: as §1, §2

[8] = tested on: Human ovarian carcinoma TYK-nu cells; test: In vitro antitumor test (trypan blue exclusion viable cell count), TYK-nu
Procedure: as §1
as §2, with “cells. Suspension cultures of human breast cancer MRK-nu-1 cells, human malignant B-cell lymphoma cells and human chronic myelogenous leukemia K562 cells were used to harvest the cells to be used in the test.” for “cells.”, “well. Cultivation was continued, and the number of viable cells was counted after 24, 48 and 72 hours.” for “well.”
as §3

Normal human renal cells = test: In vitro growth test on normal cells, renal cells
Procedure: as §1
as §2, with “cells. Suspension cultures of human breast cancer MRK-nu-1 cells, human malignant B-cell lymphoma cells and human chronic myelogenous leukemia K562 cells were used to harvest the cells to be used in the test.” for “cells.”, “well. Cultivation was continued, and the number of viable cells was counted after 24, 48 and 72 hours.” for “well.”
as §3

CC(O)c1cc2c(o1)C(=O)c1cccc(O)c1C2=O (stereo not shown) [NFD, 2-(1-hydroxyethyl)-5-hydroxynaphtho[2,3-b]furan-4,9-dione]
IC50 [1]: 0.0095 µg/mL (≈ 0.0368 µM)
IC50 [2]: 0.013 µg/mL (≈ 0.0503 µM)
IC50 [3]: 0.017 µg/mL (≈ 0.0658 µM)
concentration causing necrosis in almost all tumor cells ([4]; FIG. 6 (LNCaP; sentence prints human colon adenocarcinoma cells)): 22.4 to 55.9 ng/mL
IC (almost complete) ([4]; FIG. 6 (LNCaP; sentence prints human colon adenocarcinoma cells), read-out: concentration inhibiting growth almost completely): 0.0112 µg/mL
IC50 ([4]; Homo sapiens, 72 h, LNCaP, three days exposure, read-out: LD50 (IC50), 50% growth-inhibitory dose): 0.0017 µg/mL (≈ 0.00658 µM)
concentration causing necrosis in almost all tumor cells ([5]; FIG. 17): 50 ng/mL
IC50 ([5]; Homo sapiens, 72 h, VMRC-RCW, three days exposure, read-out: LD50 (IC50), 50% growth-inhibitory dose): 0.019 µg/mL (≈ 0.0736 µM)
IC (almost complete) ([5]; Homo sapiens, FIG. 17, read-out: concentration inhibiting growth almost completely): 0.017 µg/mL
IC50 ([6]; 72 h, NUGC-2, three days exposure, read-out: LD50 (IC50), 50% growth-inhibitory dose): 0.017 µg/mL (≈ 0.0658 µM)
IC (almost complete) ([6]; FIG. 18, read-out: concentration inhibiting cells almost completely): 0.033 µg/mL
IC50 ([7]; 72 h, three days exposure, read-out: LD50 (IC50), 50% growth-inhibitory dose): 0.025 µg/mL (≈ 0.0968 µM)
IC (almost complete) ([7]; FIG. 19, read-out: concentration inhibiting growth almost completely): 0.028 µg/mL
concentration causing necrosis in almost all tumor cells ([8]; FIG. 22): ≥ 40 ng/mL
IC50 ([8]; Homo sapiens, 72 h, TYK-nu, three days exposure, read-out: LD50 (IC50), 50% growth-inhibitory dose): 0.017 µg/mL (≈ 0.0658 µM)
IC (almost complete) ([8]; Homo sapiens, FIG. 22, read-out: concentration inhibiting growth almost completely): 0.02 µg/mL
adverse effects on growth of normal cells (Normal human renal cells; FIG. 27, at concentrations which cause necrosis in tumor cells): no adverse effects
concentration inhibiting growth of normal renal cells (Normal human renal cells; FIG. 27, only at higher concentration): 100 ng/mL
IC50 (Normal human renal cells; Homo sapiens, 72 h, normal renal cells, three days exposure, read-out: LD50 (IC50), 50% growth-inhibitory dose): 0.065 µg/mL (≈ 0.252 µM)
